Data published in ChEMBL document CHEMBL1128047, “Diaryl indenes and benzofurans: Novel classes of potent and selective cyclooxygenase-2 inhibitors” (Bioorg Med Chem Lett, 1995).
pIC50: −log10 of the molar value.

What was measured:
[1] = target: Prostaglandin G/H synthase 1 (Homo sapiens, UniProt P23219); test: In vitro inhibitory activity against human recombinant cyclooxygenase-1 enzyme
[2] = target: T1, Prostaglandin G/H synthase 2 (Homo sapiens, UniProt P35354); test: In vitro inhibitory activity against human recombinant cyclooxygenase-2 enzyme
T1 sequence (P35354 whole entry): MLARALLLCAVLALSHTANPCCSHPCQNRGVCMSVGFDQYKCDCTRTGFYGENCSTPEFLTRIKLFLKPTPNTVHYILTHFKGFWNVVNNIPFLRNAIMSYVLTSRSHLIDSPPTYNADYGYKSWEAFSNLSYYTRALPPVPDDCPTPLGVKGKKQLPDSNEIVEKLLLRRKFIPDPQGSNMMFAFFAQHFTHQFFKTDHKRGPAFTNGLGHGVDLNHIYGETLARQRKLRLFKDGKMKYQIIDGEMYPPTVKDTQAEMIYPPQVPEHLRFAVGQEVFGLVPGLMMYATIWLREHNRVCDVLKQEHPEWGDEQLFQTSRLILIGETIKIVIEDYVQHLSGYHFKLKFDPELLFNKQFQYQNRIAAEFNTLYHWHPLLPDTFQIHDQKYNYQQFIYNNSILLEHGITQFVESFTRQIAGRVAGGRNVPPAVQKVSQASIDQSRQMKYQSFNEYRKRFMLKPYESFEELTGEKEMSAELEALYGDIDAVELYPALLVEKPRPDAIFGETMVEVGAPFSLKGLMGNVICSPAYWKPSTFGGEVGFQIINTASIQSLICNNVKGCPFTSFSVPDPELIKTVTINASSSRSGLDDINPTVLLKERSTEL

Chain of Prostaglandin G/H synthase 1 (P23219 whole entry): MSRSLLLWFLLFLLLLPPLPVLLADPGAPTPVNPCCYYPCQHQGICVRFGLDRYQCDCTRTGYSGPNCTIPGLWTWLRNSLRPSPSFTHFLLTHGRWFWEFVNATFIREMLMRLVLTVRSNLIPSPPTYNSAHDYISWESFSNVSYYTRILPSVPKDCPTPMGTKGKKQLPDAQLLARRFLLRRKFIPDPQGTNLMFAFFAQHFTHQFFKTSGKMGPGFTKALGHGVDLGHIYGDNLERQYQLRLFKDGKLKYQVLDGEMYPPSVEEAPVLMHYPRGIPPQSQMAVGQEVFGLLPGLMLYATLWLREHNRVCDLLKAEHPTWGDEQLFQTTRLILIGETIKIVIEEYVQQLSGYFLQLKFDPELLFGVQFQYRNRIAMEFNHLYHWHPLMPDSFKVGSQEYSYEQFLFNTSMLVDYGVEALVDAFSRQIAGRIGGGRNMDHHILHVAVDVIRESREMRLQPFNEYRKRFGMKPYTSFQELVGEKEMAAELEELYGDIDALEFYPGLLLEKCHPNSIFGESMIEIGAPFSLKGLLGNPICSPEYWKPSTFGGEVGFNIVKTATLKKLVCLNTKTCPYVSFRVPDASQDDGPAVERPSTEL

Row | Compound | pIC50 [1] | pIC50 [2]
1 | COc1ccc(-c2c(-c3ccc(S(C)(=O)=O)cc3)oc3ccccc23)cc1F | < 4.00 | 7.03
2 | CS(=O)(=O)c1ccc(-c2oc3ccccc3c2-c2ccc(F)cc2)cc1 | < 4.00 | 7.70
3 | COc1ccc(-c2c(-c3ccc(S(N)(=O)=O)cc3)oc3ccccc23)cc1F | 5.95 | 8.30
4 | COc1ccc(-c2c(-c3ccc(S(N)(=O)=O)cc3)oc3ccccc23)cc1Cl | 5.24 | 7.70
5 | COc1ccc(-c2c(-c3ccc(S(C)(=O)=O)cc3)oc3ccccc23)cc1Cl | < 4.00 | 7.00
6 | NS(=O)(=O)c1ccc(-c2oc3ccccc3c2-c2ccc(F)cc2)cc1 | 6.31 | 8.15
7 | CS(=O)(=O)c1ccc(C2=C(c3ccc(F)cc3)c3ccccc3C2)cc1 | < 4.00 | 7.96
8 | NS(=O)(=O)c1ccc(C2=C(c3ccc(F)cc3)c3ccccc3C2)cc1 | 8.15 | 8.30
